Results reported in article PMC7576608, “Mechanisms of telomerase inhibition by oxidized and therapeutic dNTPs” (Nature Communications, 2020).
Where “and” joins values, the source holds several entries; their conditions need not be identical. Equal entries are not always repeated. Where two headings read alike, the source gives them in different places.

How the values were obtained:
telomerase [1] = molecular target: T1, telomerase (Homo sapiens, UniProt O14746); experiment: Telomerase repeat processivity IC50: modified dNTP titrated into reactions with all four natural dNTPs; type: biochemical; design: made in house; anti-FLAG immunopurification, eluted with 3xFLAG peptide
In short: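 Immunopurified human telomerase reactions with cellular-relevant levels of all four natural dNTPs plus modified dNTP titrated 0–10,000 μM, 1 h at 37 °C; products resolved on denaturing gels and phosphorimaged. Repeat processivity R1/2 = −ln(2)/slope of ln(100−%LB) vs repeat number; IC50 is concentration halving bulk repeat processivity.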

telomerase [2] = molecular target: T1, telomerase; experiment: Telomerase extension after insertion of modified dNTP (percent of product terminated at each template position); type: biochemical; design: made in house; anti-FLAG immunopurification, eluted with 3xFLAG peptide; conditions: for Percent of Total Product: Fig 4a, Primer 3, 50 μM each dTTP, dGTP and dATP or 2-OH-dATP, Mean
Method: Direct telomerase assays were conducted with 5 nM ^32P-end labeled primer a and d Primer 3 (AGGGTT)3, b Primer 1 (TTAGGG)3, or c Primer 2 […]. […] Products were separated on denaturing gels. Letters on the y-axis of the graph indicate the template base; P indicates unextended 18-mer primer. Graphs represent percent of product terminated at each template position as a function of total products. Images are representative of, and data are the mean ± s.d. from, three independent experiments. Source data are provided as a Source Date file.
The reactions were started by the addition of 3 μl of immunopurified telomerase eluent, incubated at 37 °C for 1 h, then terminated with 2 μl of […] and heat inactivated at 65 °C for 20 min. An equal volume of loading buffer (94% formamide, 0.1× TBE, 0.1% bromophenol blue, 0.1% xylene cyanol) was added to the reaction eluent. The samples were heat denatured for 10 min at 100 °C and loaded onto a 14% denaturing acrylamide gel (7 M urea, 1× TBE) and electrophoresed for 90 min at constant 38 W. Samples were imaged using a Typhoon phosphorimager (GE Healthcare). Percent primer extension was calculated with ImageQuant TL 8.2 by measuring the intensity of each product band and dividing by the total radioactivity in the lane or total products, as indicated in the figure legends.

T1 sequence (O14746 whole entry): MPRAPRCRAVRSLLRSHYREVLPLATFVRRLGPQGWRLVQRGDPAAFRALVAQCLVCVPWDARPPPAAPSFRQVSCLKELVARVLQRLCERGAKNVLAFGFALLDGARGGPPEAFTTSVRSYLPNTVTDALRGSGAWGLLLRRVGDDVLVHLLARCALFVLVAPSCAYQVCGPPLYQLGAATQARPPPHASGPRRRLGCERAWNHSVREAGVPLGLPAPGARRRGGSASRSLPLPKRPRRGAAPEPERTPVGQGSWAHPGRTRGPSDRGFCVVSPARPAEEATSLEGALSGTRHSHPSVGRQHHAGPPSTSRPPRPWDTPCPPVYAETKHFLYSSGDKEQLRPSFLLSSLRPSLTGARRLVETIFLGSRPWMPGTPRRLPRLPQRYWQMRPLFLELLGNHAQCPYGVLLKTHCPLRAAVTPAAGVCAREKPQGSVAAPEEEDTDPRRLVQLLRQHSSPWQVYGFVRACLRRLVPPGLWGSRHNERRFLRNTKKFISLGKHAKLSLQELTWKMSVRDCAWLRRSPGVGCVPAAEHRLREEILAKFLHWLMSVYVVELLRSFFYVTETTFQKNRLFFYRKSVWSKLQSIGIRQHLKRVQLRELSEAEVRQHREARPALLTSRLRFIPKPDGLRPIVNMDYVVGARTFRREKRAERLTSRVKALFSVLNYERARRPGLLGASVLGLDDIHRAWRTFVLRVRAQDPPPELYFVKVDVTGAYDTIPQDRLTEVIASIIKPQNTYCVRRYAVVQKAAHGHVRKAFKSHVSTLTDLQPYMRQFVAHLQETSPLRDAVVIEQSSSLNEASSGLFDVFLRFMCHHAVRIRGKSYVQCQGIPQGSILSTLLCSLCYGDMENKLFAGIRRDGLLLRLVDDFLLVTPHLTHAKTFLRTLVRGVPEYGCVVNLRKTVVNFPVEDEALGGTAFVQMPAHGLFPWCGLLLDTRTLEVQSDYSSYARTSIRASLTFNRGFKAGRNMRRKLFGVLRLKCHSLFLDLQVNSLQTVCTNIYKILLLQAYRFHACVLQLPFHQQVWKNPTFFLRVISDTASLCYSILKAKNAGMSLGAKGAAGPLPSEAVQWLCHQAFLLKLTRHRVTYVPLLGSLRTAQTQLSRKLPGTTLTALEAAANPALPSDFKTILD

Nc1nc(O)nc2c1ncn2C1CC(O)C(COP(=O)(O)OP(=O)(O)OP(=O)(O)O)O1 (stereo not shown) [2-OH-dATP]
YIntercept (line fit of ln(100-%LB) vs # telomere repeats) (telomerase [1]; 2-OH-dATP 31μM): 3.86 and 4.26 and 3.87 | ln(100-%LB) (telomerase [1]; 2-OH-dATP 31μM, telomere repeat 1): 3.80 and 4.29 and 3.78 | ln(100-%LB) (telomerase [1]; 2-OH-dATP 31μM, telomere repeat 2): 3.30 and 3.65 and 3.08 | ln(100-%LB) (telomerase [1]; 2-OH-dATP 31μM, telomere repeat 3): 2.75 and 3.04 and 2.41 | ln(100-%LB) (telomerase [1]; 2-OH-dATP 31μM, telomere repeat 4): 2.47 and 2.74 and 2.04 | ln(100-%LB) (telomerase [1]; 2-OH-dATP 31μM, telomere repeat 5): 2.09 and 2.42 and 1.67 | ln(100-%LB) (telomerase [1]; 2-OH-dATP 31μM, telomere repeat 6): 1.74 and 2.03 and 1.15 | Processivity R 1/2 (telomerase [1]; 2-OH-dATP 31.25 μM): 2.08 and 3.03 and 1.6 | Processivity R 1/2 (telomerase [1]; 2-OH-dATP 62.5 μM): 1.82 and 1.19 and 1.25 | Processivity R 1/2 (telomerase [1]; 2-OH-dATP 250μM): 0.71 and 1.05 and 0.94 | YIntercept (line fit of ln(100-%LB) vs # telomere repeats) (telomerase [1]; 2-OH-dATP 250μM): 4.34 and 4.78 and 4.14 | ln(100-%LB) (telomerase [1]; 2-OH-dATP 250μM, telomere repeat 1): 3.46 and 4.32 and 3.82 | ln(100-%LB) (telomerase [1]; 2-OH-dATP 250μM, telomere repeat 2): 2.39 and 3.46 and 2.75 | Processivity R 1/2 (telomerase [1]; 2-OH-dATP 500μM): 0.82 and 0.52 and 1.02 | YIntercept (line fit of ln(100-%LB) vs # telomere repeats) (telomerase [1]; 2-OH-dATP 500μM): 3.92 and 4.75 and 4.04 | ln(100-%LB) (telomerase [1]; 2-OH-dATP 500μM, telomere repeat 1): 3.41 and 4.41 and 3.82 | ln(100-%LB) (telomerase [1]; 2-OH-dATP 500μM, telomere repeat 2): 2.30 and 3.46 and 2.66 | YIntercept (line fit of ln(100-%LB) vs # telomere repeats) (telomerase [1]; 2-OH-dATP 750μM): 4.21 and 5.17 and 4.34 | ln(100-%LB) (telomerase [1]; 2-OH-dATP 750μM, telomere repeat 1): 2.99 and 4.03 and 3.90 | YIntercept (line fit of ln(100-%LB) vs # telomere repeats) (telomerase [1]; 2-OH-dATP 1000μM): 4.31 and 5.20 and 4.71 | ln(100-%LB) (telomerase [1]; 2-OH-dATP 1000μM, telomere repeat 1): 2.98 and 4.07 and 3.49 | ln(100-%LB) (telomerase [1]; 2-OH-dATP 1500μM, telomere repeat 2): 0.48 | Processivity R 1/2 (telomerase [1]; 2-OH-dATP 2000 μM): 0 | IC50 (telomerase [1]; 2-OH-dATP, mean of N1-N3, SD 66.28, read-out: Mean IC50 (processivity R 1/2)): 103 µM | Bottom (best-fit, processivity R 1/2 vs log concentration) (telomerase [1]; 2-OH-dATP, per replicate N1-N3): 0.09 and -0.00587 and 0.62 | HillSlope (processivity) (telomerase [1]; 2-OH-dATP, per replicate N1-N3): -1.28 and -0.83 and -0.032 | Span (best-fit, processivity R 1/2 vs log concentration) (telomerase [1]; 2-OH-dATP, per replicate N1-N3): 2.29 and 2.84 and 1.84 | Top (best-fit, processivity R 1/2 vs log concentration) (telomerase [1]; 2-OH-dATP, per replicate N1-N3): 2.38 and 2.84 and 2.47 | LogIC50 (processivity) (telomerase [1]; 2-OH-dATP, per replicate N1-N3, concentration in μM): 2.24 and 1.99 and 1.60 | IC50 (telomerase [1]; 2-OH-dATP, per replicate N1-N3, read-out: IC50 (processivity R 1/2)): 172 µM and 97 µM and 39.4 µM | IC50 (telomerase [1]; cellular relevant natural dNTPs, modified dNTP titrated 0 to 10,000 μM, based on repeat processivity, mean ± SD, read-out: Telomerase processivity IC50): 103 ± 66 µM | IC50 (telomerase [1]; log of processivity IC50 (concentration in μM), Supplementary Fig 8b, read-out: Log IC50 (converted)): 126 µM | Extension after insertion of the modified dNTP (in words) (telomerase [2]; 50 μM each dNTP, analog substituted for natural dNTP): translocation to add the next repeat is greatly compromised | Percent of Total Product (telomerase [2]; terminated at rA3): 5.06% | Percent of Total Product (telomerase [2]; terminated at rA4): 1.19% | Percent of Total Product (telomerase [2]; terminated at rC1): 1.62% | Percent of Total Product (telomerase [2]; terminated at rC2): 10.51% | Percent of Total Product (telomerase [2]; terminated at rC6): 68.71% | Percent of Total Product (telomerase [2]; terminated at rU5 (first)): 12.42% | Percent of Total Product (telomerase [2]; terminated at rU5 (second, after translocation)): 0.49%
